In ChEMBL document CHEMBL5260847, “Current scenario of indole derivatives with potential anti-drug-resistant cancer activity” (Eur J Med Chem, 2020):

Legend:
Format in all cases: functional, cell-based
[1] = tested on: H69AR; assay: Antiproliferative activity against multi-drug resistant human NCI-H69AR assessed as reduction in cell viability
[2] = tested on: ZR-75-1; assay: Antiproliferative activity against multi-drug resistant human ZR-75-1 cells assessed as reduction in cell viability
[3] = tested on: A549; assay: Antiproliferative activity against human A549 cells assessed as reduction in cell viability after 48 hrs by CellTiter-Blue assay; details: A549, 48 h
[4] = tested on: HT-29; assay: Antiproliferative activity against human HT-29 cells assessed as reduction in cell viability celltiter-Glo assay
[5] = tested on: ZR-75-1; assay: Antiproliferative activity against human ZR-75-1 cells assessed as reduction in cell viability celltiter-Glo assay
[6] = tested on: A549; assay: Antiproliferative activity against human Non-small-cell lung cancer A549 cells assessed as reduction in cell viability incubated for 72 hrs by MTT assay; details: A549, 72 h
[7] = tested on: H69AR; assay: Antiproliferative activity against multidrug resistant human NCI-H69AR assessed as inhibition of cell proliferation by MTT assay
[8] = tested on: MCF7; assay: Antiproliferative activity against Doxorubicin resistant human MCF7 cells assessed as reduction in cell viability
[9] = tested on: HT-29; assay: Antiproliferative activity against human HT-29 cells assessed as reduction in cell viability incubated for 72 hrs by MTT assay; details: HT-29, 72 h
[10] = tested on: HCT-116; assay: Antiproliferative activity against human HCT-116
[11] = tested on: HeLa; assay: Anticancer activity against human HeLa cells assessed as inhibition of cell growth

IC50 [4] | IC50 [6] | IC50 [8] | IC50 [10] | IC50 [11] | Compound | IC50 [1] | IC50 [2] | IC50 [3] | IC50 [5] | IC50 [7] | IC50 [9]
10.1 µM | 3.06 µM | > 100 µM | – | – | CCN(CC)CCNC(=O)c1c(C)[nH]c(/C=C2\C(=O)Nc3ccc(F)cc32)c1C [SUNITINIB] | 5.8 µM | 18.9 µM | 10.1 µM | 5.87 µM | 5.8 µM | –
– | – | – | – | – | COc1ccc2c(c1)/C(=N/NC(=O)c1cc3cc(OC)ccc3[nH]1)C(=O)N2Cc1ccccc1 | – | – | 0.54 µM | – | – | 2940 nM
– | – | – | 6.23 µM | 6.23 µM | O=C1/C(=N\O)c2ccccc2N1CCOCCN1C(=O)/C(=N/O)c2ccccc21 | – | – | – | – | – | –
